One experiment addresses T1, MKK4 (Homo sapiens, UniProt P45985).
T1 construct: S84/D399; host or cells: HEK-293
T1 sequence (P45985 84-399): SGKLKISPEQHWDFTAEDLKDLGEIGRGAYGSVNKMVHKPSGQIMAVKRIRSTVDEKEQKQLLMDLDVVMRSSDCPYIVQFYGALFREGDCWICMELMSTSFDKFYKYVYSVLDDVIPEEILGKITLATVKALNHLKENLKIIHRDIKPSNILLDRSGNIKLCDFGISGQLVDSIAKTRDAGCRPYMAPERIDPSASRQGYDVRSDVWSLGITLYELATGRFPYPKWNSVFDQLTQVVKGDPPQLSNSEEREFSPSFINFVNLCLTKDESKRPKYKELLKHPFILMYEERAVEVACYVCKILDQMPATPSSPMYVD
In words: KINOMEscan competition binding assay, MKK4 potency. Conditions: compound concentration 100 nM; lower numbers indicate stronger binding. On the procedure:
(§1) The assay was performed by combining three components: DNA-tagged kinase; immobilized ligand; and a test compound. The ability of the test compound to compete with the immobilized ligand was measured via quantitative PCR of the DNA tag. The technology is described in detail in Fabian, M. A. et al., A small molecule-kinase interaction map for clinical kinase inhibitors. Nat.
(§2) For investigation of the affinity to MKK4, MKK7 and JNK1, the kinases were produced in HEK-293 cells and subsequently tagged with DNA for qPCR detection. […] The liganded beads were blocked with excess biotin and washed with blocking buffer (SEABLOCK™ (Pierce), 1% BSA, 0.05% TWEEN®20, 1 mM DTT) to remove unbound ligand and to reduce nonspecific binding. […] All reactions were performed in polystyrene 96-well plates in a final volume of 0.135 mL. […] The kinase concentration in the eluates was measured by qPCR.
(§3) The test compounds were provided as 10 mM stock solutions. The test solutions at indicated final concentrations were prepared at DiscoverX.

For another experiment, the target named is T2, JNK1 (Homo sapiens, UniProt P45983).
T2 construct: M1/Q384; host or cells: HEK-293
In words: KINOMEscan competition binding, selectivity against off-target JNK1 (PoC ratio JNK1/MKK4). Conditions: compound concentration 100 nM. On the procedure: as §1, §2, §3

A further experiment deals with T3, MKK7 (Homo sapiens, UniProt O14733).
T3 construct: M1/R419; host or cells: HEK-293
T3 sequence (O14733 1-419): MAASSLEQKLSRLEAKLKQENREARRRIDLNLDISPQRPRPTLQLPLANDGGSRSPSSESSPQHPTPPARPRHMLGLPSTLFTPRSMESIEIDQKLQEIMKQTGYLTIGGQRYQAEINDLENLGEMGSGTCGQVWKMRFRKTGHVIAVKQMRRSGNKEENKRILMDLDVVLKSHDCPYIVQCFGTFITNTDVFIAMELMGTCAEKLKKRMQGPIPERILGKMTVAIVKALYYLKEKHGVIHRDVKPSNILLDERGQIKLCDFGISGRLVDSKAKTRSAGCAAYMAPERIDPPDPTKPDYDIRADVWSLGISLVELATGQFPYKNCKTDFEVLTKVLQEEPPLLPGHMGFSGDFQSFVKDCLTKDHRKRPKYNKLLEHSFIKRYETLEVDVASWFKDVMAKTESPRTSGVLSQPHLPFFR
In words: KINOMEscan competition binding, selectivity against off-target MKK7 (PoC ratio MKK7/MKK4). The note with it: compound concentration 100 nM. As for the experimental part: as §1, §2, §3

For a further experiment, the target named is BRaf (Homo sapiens, UniProt P15056). In words: KINOMEscan competition binding, selectivity against off-target BRaf (PoC ratio BRaf/MKK4). Conditions: compound concentration 100 nM. As for the experimental part: as §1, §3

SMILES strings stand for the structures.

T2 sequence (P45983 1-384 isoform P45983-2): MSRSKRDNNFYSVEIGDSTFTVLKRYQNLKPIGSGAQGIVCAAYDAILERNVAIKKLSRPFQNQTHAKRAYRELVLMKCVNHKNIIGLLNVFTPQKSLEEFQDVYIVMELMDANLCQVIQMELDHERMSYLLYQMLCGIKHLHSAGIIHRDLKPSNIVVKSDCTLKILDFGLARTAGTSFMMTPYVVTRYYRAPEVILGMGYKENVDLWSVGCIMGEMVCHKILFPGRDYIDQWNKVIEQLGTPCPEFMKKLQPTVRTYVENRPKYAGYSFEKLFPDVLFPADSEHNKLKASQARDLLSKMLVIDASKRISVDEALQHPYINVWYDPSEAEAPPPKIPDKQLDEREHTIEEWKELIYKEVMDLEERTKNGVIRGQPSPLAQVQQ
BRaf, sequence (P15056 whole entry): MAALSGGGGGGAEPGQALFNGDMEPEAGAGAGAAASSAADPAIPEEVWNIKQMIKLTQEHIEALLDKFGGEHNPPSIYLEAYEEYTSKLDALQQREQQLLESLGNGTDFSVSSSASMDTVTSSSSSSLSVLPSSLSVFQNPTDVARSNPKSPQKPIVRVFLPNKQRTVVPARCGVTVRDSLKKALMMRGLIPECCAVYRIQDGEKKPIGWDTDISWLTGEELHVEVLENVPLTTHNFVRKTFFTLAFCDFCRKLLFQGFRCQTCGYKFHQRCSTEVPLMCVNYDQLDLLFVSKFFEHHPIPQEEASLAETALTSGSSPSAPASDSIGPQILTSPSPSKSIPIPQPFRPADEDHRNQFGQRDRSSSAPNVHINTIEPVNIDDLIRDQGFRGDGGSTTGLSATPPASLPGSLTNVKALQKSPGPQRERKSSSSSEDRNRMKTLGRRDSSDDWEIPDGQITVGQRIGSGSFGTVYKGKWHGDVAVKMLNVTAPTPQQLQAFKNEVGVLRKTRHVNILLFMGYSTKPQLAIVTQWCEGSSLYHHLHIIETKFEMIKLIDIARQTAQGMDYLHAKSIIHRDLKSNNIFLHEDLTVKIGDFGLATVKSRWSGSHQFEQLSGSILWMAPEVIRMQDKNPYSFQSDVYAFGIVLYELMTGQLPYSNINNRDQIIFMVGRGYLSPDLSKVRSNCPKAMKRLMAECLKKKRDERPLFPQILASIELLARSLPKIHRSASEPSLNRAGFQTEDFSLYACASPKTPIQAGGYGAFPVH

`CCCS(=O)(=O)Nc1ccc(F)c(C(=O)c2ccc3[nH]c4ncc(-c5ccc(OCC(O)CO)cc5)cc4c3c2)c1F` (centres unmarked) [Example 4m]: the “MKK4 residual percent of control binding (PoC)” value (“MKK4 residual percent” below) at MKK4 is reported as “+ + +”. In addition, the “Selectivity vs. JNK1, ratio PoC(JNK1)/PoC(MKK4)” value at JNK1 is listed as “+++ (PoC(JNK1)/PoC(MKK4) ≥ 30 = “+++”)”. Moreover, at MKK7, the “Selectivity vs. MKK7, ratio PoC(MKK7)/PoC(MKK4)” value is “+++ (PoC(MKK7)/PoC(MKK4) ≥ 30 = “+++”)”. Further, on BRaf, the “Selectivity vs. BRaf, ratio PoC(BRaf)/PoC(MKK4)” value is reported as “+++ (PoC(BRaf)/PoC(MKK4) ≥ 30 = “+++”)”.
Taken in the same sequence, the figures for `CS(=O)(=O)Nc1c(F)ccc(C(=O)c2ccc3[nH]c4ncc(Cl)cc4c3c2)c1F` [Example 9, N-(3-(3-chloro-9H-pyrido[2,3-b]indole-6-carbonyl)-2,6-difluorophenyl)methanesulfonamide] were “+ + +”, “+++ (PoC(JNK1)/PoC(MKK4) ≥ 30 = “+++”)”, “+++ (PoC(MKK7)/PoC(MKK4) ≥ 30 = “+++”)” and “+++ (PoC(BRaf)/PoC(MKK4) ≥ 30 = “+++”)”.
Taken in the same sequence, the figures for `CCCS(=O)(=O)Nc1ccc(F)c(C(=O)c2ccc3[nH]c4ncc(-c5ccc(C(=O)O)cc5)cc4c3c2)c1F` [Example 4n] were “+ + +”, “+++ (PoC(JNK1)/PoC(MKK4) ≥ 30 = “+++”)”, “+++ (PoC(MKK7)/PoC(MKK4) ≥ 30 = “+++”)” and “+++ (PoC(BRaf)/PoC(MKK4) ≥ 30 = “+++”)”.
Taken in the same sequence, the figures for `CCCS(=O)(=O)Nc1ccc(F)c(C(=O)c2ccc3[nH]c4ncc(-c5ccncc5)cc4c3c2)c1F` [Example 4a] were “+ + +”, “+++ (PoC(JNK1)/PoC(MKK4) ≥ 30 = “+++”)”, “+++ (PoC(MKK7)/PoC(MKK4) ≥ 30 = “+++”)” and “+++ (PoC(BRaf)/PoC(MKK4) ≥ 30 = “+++”)”.
In the case of `CCCS(=O)(=O)Nc1ccc(F)c(C(=O)c2ccc3[nH]c4ncc(-c5ccc(N)nc5)cc4c3c2)c1F` [Example 7, N-(3-(3-(6-aminopyridin-3-yl)-9H-pyrido[2,3-b]indole-6-carbonyl)-2,4-difluorophenyl)propane-1-sulfonamide], on MKK4, the “MKK4 residual percent” value is listed as “+ + +”. Moreover, the “Selectivity vs. JNK1, ratio PoC(JNK1)/PoC(MKK4)” value at JNK1 is “+++ (PoC(JNK1)/PoC(MKK4) ≥ 30 = “+++”)”. Also, on MKK7, the “Selectivity vs. MKK7, ratio PoC(MKK7)/PoC(MKK4)” value was “+++ (PoC(MKK7)/PoC(MKK4) ≥ 30 = “+++”)”. The “Selectivity vs. BRaf, ratio PoC(BRaf)/PoC(MKK4)” value on BRaf is “+++ (PoC(BRaf)/PoC(MKK4) ≥ 30 = “+++”)”.
Taken in the same sequence, the figures for `CCCS(=O)(=O)Nc1ccc(F)c(C(=O)c2ccc3[nH]c4ncc(-c5ccc(-c6nnn[nH]6)cc5)cc4c3c2)c1F` [Example 4f] were “+ +”, “+++ (PoC(JNK1)/PoC(MKK4) ≥ 30 = “+++”)”, “+++ (PoC(MKK7)/PoC(MKK4) ≥ 30 = “+++”)” and “+++ (PoC(BRaf)/PoC(MKK4) ≥ 30 = “+++”)”.
The like results for `CCS(=O)(=O)Nc1ccc(F)c(C(=O)c2ccc3[nH]c4ncc(-c5ccc(S(N)(=O)=O)cc5)cc4c3c2)c1F` [Example 4k] were, in that order, “+ + +”, “+++ (PoC(JNK1)/PoC(MKK4) ≥ 30 = “+++”)”, “+++ (PoC(MKK7)/PoC(MKK4) ≥ 30 = “+++”)” and “+++ (PoC(BRaf)/PoC(MKK4) ≥ 30 = “+++”)”.
The like results for `CCCS(=O)(=O)Nc1cccc(C(=O)c2ccc3[nH]c4ncc(Cl)cc4c3c2)c1F` [Example 8, N-(3-(3-chloro-9H-pyrido[2,3-b]indole-6-carbonyl)-2-fluorophenyl)propane-1-sulfonamide] were, in that order, “+ (10 ≤ PoC < 30 = “+”)”, “+++ (PoC(JNK1)/PoC(MKK4) ≥ 30 = “+++”)”, “+++ (PoC(MKK7)/PoC(MKK4) ≥ 30 = “+++”)” and “+++ (PoC(BRaf)/PoC(MKK4) ≥ 30 = “+++”)”.
In the case of `CCCS(=O)(=O)Nc1ccc(F)c(C(=O)c2ccc3[nH]c4ncc(-c5ccc(S(N)(=O)=O)cc5)cc4c3c2)c1F` [Example 4b], the “MKK4 residual percent” value at MKK4 is listed as “+ +”. The “Selectivity vs. JNK1, ratio PoC(JNK1)/PoC(MKK4)” value on JNK1 is reported as “+++ (PoC(JNK1)/PoC(MKK4) ≥ 30 = “+++”)”. The “Selectivity vs. MKK7, ratio PoC(MKK7)/PoC(MKK4)” value at MKK7 is “+++ (PoC(MKK7)/PoC(MKK4) ≥ 30 = “+++”)”. Also, the “Selectivity vs. BRaf, ratio PoC(BRaf)/PoC(MKK4)” value at BRaf is “+++ (PoC(BRaf)/PoC(MKK4) ≥ 30 = “+++”)”.
Taken in the same sequence, the figures for `CCCS(=O)(=O)Nc1ccc(F)c(C(=O)c2ccc3[nH]c4ncc(-c5ccc(C(N)=O)cc5)cc4c3c2)c1F` [Example 4e] were “+ + +”, “+++ (PoC(JNK1)/PoC(MKK4) ≥ 30 = “+++”)”, “+++ (PoC(MKK7)/PoC(MKK4) ≥ 30 = “+++”)” and “+++ (PoC(BRaf)/PoC(MKK4) ≥ 30 = “+++”)”.
Taken in the same sequence, the figures for `CS(=O)(=O)Nc1ccc(F)c(C(=O)c2ccc3[nH]c4ncc(-c5ccc(S(N)(=O)=O)cc5)cc4c3c2)c1F` [Example 4j] were “+ + +”, “+++ (PoC(JNK1)/PoC(MKK4) ≥ 30 = “+++”)”, “+++ (PoC(MKK7)/PoC(MKK4) ≥ 30 = “+++”)” and “+++ (PoC(BRaf)/PoC(MKK4) ≥ 30 = “+++”)”.

The record behind these values is patent US11731968B2, “Tricyclic protein kinase inhibitors for promoting liver regeneration or reducing or preventing hepatocyte death” (HEPAREGENIX GMBH, priority 2018, dated 2023).
